Among the data in US20260306640A1, “TECHNOLOGIES TARGETING CELL STATES” (Auron Therapeutics, Inc., priority 2023, published 2026) are DC50 values, retold here.

The target of experiment [1] is KAT2B (Homo sapiens, UniProt Q92831). Description: KAT2B degradation, Western Blot (Jess), NCI-H1048 cells. In kind it is cell-based. Also on record: degrader, Western blot (Jess). As to conditions: NCI-H1048 cells, KAT2B, 24 h, Western Blot, vs DMSO; read-out: KAT2B NCI-H1048 DC50. In a few lines: (§1)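 DC50 came from protein loss relative to DMSO, measured by Jess capillary immunoblot of RIPA lysates with chemiluminescence read-out. Before lysis, NCI-H1048 cells in 5% FBS HITES medium were exposed to compound for 24 h at 37° C.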
KAT2B, sequence (Q92831 whole entry): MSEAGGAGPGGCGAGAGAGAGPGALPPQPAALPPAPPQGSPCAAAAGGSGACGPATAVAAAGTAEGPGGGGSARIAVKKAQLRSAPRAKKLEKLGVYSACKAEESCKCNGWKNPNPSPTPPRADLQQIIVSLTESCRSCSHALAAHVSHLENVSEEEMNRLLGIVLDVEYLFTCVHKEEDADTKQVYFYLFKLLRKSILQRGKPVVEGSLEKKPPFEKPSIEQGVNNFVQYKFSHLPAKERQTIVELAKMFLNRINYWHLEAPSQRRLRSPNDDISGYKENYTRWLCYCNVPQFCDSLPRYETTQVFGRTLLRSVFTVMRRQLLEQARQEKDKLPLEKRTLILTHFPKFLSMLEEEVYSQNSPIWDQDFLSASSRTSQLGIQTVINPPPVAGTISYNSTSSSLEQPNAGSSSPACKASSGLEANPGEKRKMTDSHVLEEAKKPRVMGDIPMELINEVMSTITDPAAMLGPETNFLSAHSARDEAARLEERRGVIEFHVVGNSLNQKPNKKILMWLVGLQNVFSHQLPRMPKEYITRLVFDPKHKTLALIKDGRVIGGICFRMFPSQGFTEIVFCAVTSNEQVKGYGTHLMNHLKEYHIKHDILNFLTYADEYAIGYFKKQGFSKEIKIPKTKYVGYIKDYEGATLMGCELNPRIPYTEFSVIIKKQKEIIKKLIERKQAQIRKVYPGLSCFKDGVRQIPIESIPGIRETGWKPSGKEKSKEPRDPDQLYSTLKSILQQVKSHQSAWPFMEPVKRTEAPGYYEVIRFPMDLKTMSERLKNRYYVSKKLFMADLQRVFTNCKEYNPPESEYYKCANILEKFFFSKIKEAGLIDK

Experiment [2] deals with KAT2A (Homo sapiens, UniProt Q92830). Description: KAT2A degradation, Western Blot (Jess), NCI-H1048 cells. The experiment is classed as cell-based. Also on record: degrader, Western blot (Jess). As to conditions: NCI-H1048 cells, KAT2A, 24 h, Western Blot, vs DMSO; read-out: KAT2A NCI-H1048 DC50. The essentials: as §1
KAT2A, sequence (Q92830 whole entry): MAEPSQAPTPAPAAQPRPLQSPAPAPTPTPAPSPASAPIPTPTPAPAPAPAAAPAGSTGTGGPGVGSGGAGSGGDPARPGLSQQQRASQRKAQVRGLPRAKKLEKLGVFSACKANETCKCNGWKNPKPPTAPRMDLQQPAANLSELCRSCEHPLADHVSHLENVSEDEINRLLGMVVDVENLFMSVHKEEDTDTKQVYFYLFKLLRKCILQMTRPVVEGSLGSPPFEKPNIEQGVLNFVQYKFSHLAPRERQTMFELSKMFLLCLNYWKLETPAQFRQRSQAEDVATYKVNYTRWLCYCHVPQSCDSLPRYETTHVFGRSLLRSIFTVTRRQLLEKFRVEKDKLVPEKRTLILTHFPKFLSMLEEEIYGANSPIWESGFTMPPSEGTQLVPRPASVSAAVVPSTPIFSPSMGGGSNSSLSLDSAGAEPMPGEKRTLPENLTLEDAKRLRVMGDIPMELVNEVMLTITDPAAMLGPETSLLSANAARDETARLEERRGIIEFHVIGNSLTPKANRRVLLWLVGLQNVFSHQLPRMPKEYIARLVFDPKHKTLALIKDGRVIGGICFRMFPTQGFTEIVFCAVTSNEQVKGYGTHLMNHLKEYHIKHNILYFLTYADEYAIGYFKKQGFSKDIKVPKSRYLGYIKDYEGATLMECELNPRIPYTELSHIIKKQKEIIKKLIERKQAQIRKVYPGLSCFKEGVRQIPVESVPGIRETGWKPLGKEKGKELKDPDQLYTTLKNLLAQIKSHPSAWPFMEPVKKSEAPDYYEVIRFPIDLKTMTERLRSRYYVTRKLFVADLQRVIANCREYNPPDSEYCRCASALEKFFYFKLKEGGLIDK
For orientation: Immunoblotting shows a protein as a band on a membrane.

Each structure is given as a SMILES string.

As a reminder, the DC50 is the midpoint of the concentration-degradation curve. `CN1C[C@H](Nc2cnn(C)c(=O)c2Cl)C[C@H](c2ccc(C(=O)N3CC(c4cccc(C5CCC(=O)NC5=O)c4)C3)cc2)C1` (stereo partly drawn) [Compound 193]: the DC50 in experiment [1] is greater than 30 nM; in experiment [2] it was 1 to 30 nM.

As for `COc1cc(N2CCC3(CCN(C(=O)c4ccc([C@H]5C[C@@H](Nc6cnn(C)c(=O)c6Cl)CN(C)C5)cc4)CC3)CC2)c(C)cc1C1CCC(=O)NC1=O` (stereo partly drawn) [Compound 285], the DC50 in experiment [1] was greater than 30 nM; in experiment [2] it was less than 1 nM.

Turning to `Cc1cc(N2CCC3(CCN(C(=O)c4ccc([C@H]5C[C@@H](Nc6cnn(C)c(=O)c6Br)CN(C)C5)cc4)CC3)CC2)cc(F)c1C1CCC(=O)NC1=O` (stereo partly drawn) [Compound 2-69], the DC50 in experiment [1] and in experiment [2] was less than 1 nM throughout.

As for `CN1C[C@H](Nc2cnn(C)c(=O)c2Br)C[C@H](c2ccc(C(=O)N3CCC4(CC3)CCN(c3cccc5c3C(=O)N(C3CCC(=O)NC3=O)C5=O)CC4)cc2)C1` (stereo partly drawn) [Compound 17], the DC50 in experiment [1] and in experiment [2] was 1 to 30 nM in each case.

Consider `Cc1cc(N2CCC3(CCN(C(=O)c4ccc([C@H]5C[C@@H](Nc6cnn(C)c(=O)c6C)CN(C)C5)cc4)CC3)CC2)c(F)cc1C1CCC(=O)NC1=O` (stereo partly drawn) [Compound 244], for which the DC50 in experiment [1] is greater than 30 nM; in experiment [2], 1 to 30 nM.

For `CN1C[C@H](Nc2cnn(C)c(=O)c2Br)C[C@H](c2ccc(C(=O)N3CC(C#Cc4ccc(C5CCC(=O)NC5=O)cc4)C3)cc2)C1` (stereo partly drawn) [Compound 337], the DC50 in experiment [1] was greater than 30 nM; in experiment [2], less than 1 nM.

For the compound `CN1C[C@H](Nc2cnn(C)c(=O)c2Br)C[C@H](c2ccc(C(=O)N3CCN(C4CCC(N5CCC(=O)NC5=O)CC4)CC3)cc2)C1` (stereo partly drawn) [Compound 204], the DC50 in experiment [1] and in experiment [2] was greater than 30 nM throughout.

`COc1cc(N2CCC3(CCN(C(=O)c4ccc([C@H]5C[C@@H](Nc6cnn(C)c(=O)c6Cl)CN(C)C5)cc4)CC3)CC2)c(F)cc1C1CCC(=O)NC1=O` (stereo partly drawn) [Compound 279]: the half-maximal degradation concentration (DC50) was greater than 30 nM in experiment [1] and less than 1 nM in experiment [2].

Take `Cn1ncc(N[C@@H]2C[C@H](c3ccc(C(=O)N4CCC5(CC4)CCN(c4ccc(C6CCC(=O)NC6=O)cc4)CC5)cc3)CN(C3CC3)C2)c(Br)c1=O` (stereo partly drawn) [Compound 424, 3-(4-(9-(4-((3R,5R)-5-((5-bromo-1-methyl-6-oxo-1,6-dihydropyridazin-4-yl)amino)-1-cyclopropylpiperidin-3-yl)benzoyl)-3,9-diazaspiro[5.5]undecan-3-yl)phenyl)piperidine-2,6-dione]: the 50% degradation concentration (DC50) in experiment [1] and in experiment [2] was greater than 30 nM throughout.

Regarding `CN1C[C@H](Nc2cnn(C)c(=O)c2Br)C[C@H](c2ccc(CN3CCN(c4ccc5c(C6CCC(=O)NC6=O)cncc5c4)CC3)cc2)C1` (stereo partly drawn) [Compound 380], the DC50 in experiment [1] and in experiment [2] was less than 1 nM throughout.

On to `CN1C[C@H](Nc2cnn(C)c(=O)c2Cl)C[C@H](c2ccc(C(=O)N3CCC4(CC3)CCN(c3ccc(CN5CCC(=O)NC5=O)cc3)CC4)cc2)C1` [Compound 268], for which the 50% degradation concentration (DC50) in experiment [1] was greater than 30 nM; in experiment [2] it was less than 1 nM.

For `C[C@H](Nc1nn(C)c(=O)c2ccccc12)[C@H](c1ccc(C(=O)N2CCC3(CC2)CCN(c2ccc(C4CCC(=O)NC4=O)cc2)CC3)cc1)N(C)C` (stereo partly drawn) [Compound 432, 3-(4-(9-(4-((1S,2S)-1-(dimethylamino)-2-((3-methyl-4-oxo-3,4-dihydro-phthalazin-1-yl)amino)propyl)benzoyl)-3,9-diazaspiro[5.5]undecan-3-yl)phenyl)piperid-ine-2,6-dione], the values for the DC50 in experiment [1] and in experiment [2] were greater than 30 nM and less than 1 nM, respectively.

On to `CN1C[C@H](Nc2cnn(C)c(=O)c2Cl)C[C@H](c2ccc(C(=O)N3CCC4(CCC(c5ccc6c(C7CCC(=O)NC7=O)cncc6c5)CC4)CC3)cc2)C1` (stereo partly drawn) [Compound 329], for which the DC50 in experiment [1] and in experiment [2] was less than 1 nM in each case.

For the compound `CN1C[C@H](Nc2cnn(C)c(=O)c2Br)C[C@H](c2ccc(C(=O)N3CCC4(CC3)CCN(c3ncc(C5CCC(=O)NC5=O)cn3)CC4)cc2)C1` (stereo partly drawn) [Compound 271], the DC50 in experiment [1] and in experiment [2] was less than 1 nM throughout.

As for `Cc1cc(N2CCC3(CCN(C(=O)c4ccc([C@H]5C[C@@H](Nc6cnn(C)c(=O)c6Br)CN(C)C5)cc4)CC3)CC2)cnc1C1CCC(=O)NC1=O` (stereo partly drawn) [Compound 246], the DC50 in experiment [1] and in experiment [2] was less than 1 nM throughout.

For the compound `CN1C[C@H](Nc2cnn(C)c(=O)c2Br)C[C@H](c2ccc(C(=O)N3CCC4(CC3)CCN(c3ccc(C(=O)NC5CCC(=O)NC5=O)nc3)CC4)cc2)C1` (stereo partly drawn) [Compound 402], the DC50 in experiment [1] and in experiment [2] was less than 1 nM in each case.

Regarding `CN1C[C@H](Nc2cnn(C)c(=O)c2Cl)C[C@H](c2ccc(C(=O)N3CCC4(CC3)CCN(c3ccc(C5CCC(=O)NC5=O)cc3OC(F)(F)F)CC4)cc2)C1` (stereo partly drawn) [Compound 260], the half-maximal degradation concentration (DC50) in experiment [1] was 1 to 30 nM; in experiment [2], less than 1 nM.

With `Cc1c(N[C@@H]2C[C@H](c3ccc(CN4CCN(c5ccc6c(c5)C(=O)N(C5CCC(=O)NC5=O)C6=O)CC4)cc3)CN(C)C2)cnn(C)c1=O` (stereo partly drawn) [Compound 303], the half-maximal degradation concentration (DC50) in experiment [1] is 1 to 30 nM; in experiment [2] it was less than 1 nM.

For the compound `CN1C[C@H](Nc2cnn(C)c(=O)c2Br)C[C@H](c2ccc(C(=O)N3CCC4(CCC(c5ccc(C6CCC(=O)NC6=O)c(F)c5)CC4)CC3)cc2)C1` (stereo partly drawn) [Compound 325], the half-maximal degradation concentration (DC50) in experiment [1] and in experiment [2] was less than 1 nM each time.

As for `CN1C[C@H](Nc2cnn(C)c(=O)c2Cl)C[C@H](c2ccc(CN3CCN(c4cccc(C5CCC(=O)NC5=O)c4)CC34CC4)cc2)C1` (stereo partly drawn) [Compound 347], the DC50 in experiment [1] was greater than 30 nM; in experiment [2], 1 to 30 nM.

Take `CN1C[C@H](Nc2cnn(C)c(=O)c2Br)C[C@H](c2ccc(C(=O)N3CCC4(CCC(c5ccc(C6CCC(=O)NC6=O)cn5)CC4)CC3)cc2)C1` (stereo partly drawn) [Compound 321]: the DC50 in experiment [1] and in experiment [2] was less than 1 nM each time.

Turning to `Cc1cc(N2CCC3(CCN(Cc4ccc([C@H]5C[C@@H](Nc6cnn(C)c(=O)c6Cl)CN(C)C5)cc4)CC3)CC2)ccc1C1CCC(=O)NC1=O` (stereo partly drawn) [Compound 338], the DC50 in experiment [1] and in experiment [2] was less than 1 nM in each case.

As for `CN1C[C@H](Nc2cnn(C)c(=O)c2Cl)C[C@H](c2ccc(CN3CCN(c4cncc(C5CCC(=O)NC5=O)c4)CC3)cc2)C1` (stereo partly drawn) [Compound 344], the DC50 in experiment [1] and in experiment [2] was greater than 30 nM each time.

As to `CN1C[C@H](Nc2cnn(C)c(=O)c2Cl)C[C@H](c2ccc(CN3CC(c4cccc(C5CCC(=O)NC5=O)c4)C3)cc2)C1` (stereo partly drawn) [Compound 194], the DC50 is greater than 30 nM in experiment [1] and 1 to 30 nM in experiment [2].

As for `CN1C[C@H](Nc2cnn(C)c(=O)c2Br)C[C@H](c2ccc(C(=O)N3CCN(c4ccc5nc(C6CCC(=O)NC6=O)ccc5c4)CC3)cc2)C1` (stereo partly drawn) [Compound 384], the DC50 in experiment [1] and in experiment [2] was less than 1 nM in each case.

As for `Cc1cc(N2CCC3(CCN(C(=O)c4ccc([C@H]5C[C@@H](Nc6cnn(C)c(=O)c6Br)CN(C)C5)cc4)CC3)CC2)ncc1C1CCC(=O)NC1=O` (stereo partly drawn) [Compound 273], the DC50 in experiment [1] and in experiment [2] was less than 1 nM throughout.

`CN1C[C@H](Nc2cnn(C)c(=O)c2Cl)C[C@H](c2ccc(CN3CCC(c4ccc5c(C6CCC(=O)NC6=O)cncc5c4)C(F)(F)C3)cc2)C1` (stereo partly drawn) [Compound 389]: the DC50 in experiment [1] and in experiment [2] was less than 1 nM each time.

As to `COc1cc(N2CCC3(CCN(C(=O)c4ccc([C@H]5C[C@@H](Nc6cnn(C)c(=O)c6Br)CN(C)C5)cc4)CC3)CC2)cc(C)c1C1CCC(=O)NC1=O` (stereo partly drawn) [Compound 287], the results for the 50% degradation concentration (DC50) in experiment [1] and in experiment [2] were 1 to 30 nM and less than 1 nM, respectively.

As to `Cc1c(N[C@@H]2C[C@H](c3ccc(C(=O)N4CCC5(CC4)CCN(c4cnc(C6CCC(=O)NC6=O)c(F)c4)CC5)cc3)CN(C)C2)cnn(C)c1=O` (stereo partly drawn) [Compound 272], the 50% degradation concentration (DC50) in experiment [1] is greater than 30 nM; in experiment [2], less than 1 nM.

`CN1C[C@H](Nc2cnn(C)c(=O)c2Br)C[C@H](c2ccc(C(=O)N3CCC4(CC3)CCN(c3ccn(C5CCC(=O)NC5=O)c(=O)c3)CC4)cc2)C1` (stereo partly drawn) [Compound 217]: the DC50 in experiment [1] was greater than 30 nM; in experiment [2], 1 to 30 nM.

Take `Cc1c(N[C@@H]2C[C@H](c3ccc(C(=O)N4CCC5(CC4)CCN(c4ccc(C6CCC(=O)NC6=O)cc4F)CC5)cc3)CN(C)C2)cnn(C)c1=O` (stereo partly drawn) [Compound 225]: the values for the DC50 in experiment [1] and in experiment [2] were 1 to 30 nM and less than 1 nM, respectively.

Take `CN1C[C@H](Nc2cnn(C)c(=O)c2Cl)C[C@H](c2ccc(C(=O)N3CCC4(CC3)CCN(c3cc(C(F)(F)F)c(C5CCC(=O)NC5=O)cn3)CC4)cc2)C1` (stereo partly drawn) [Compound 270]: the DC50 in experiment [1] and in experiment [2] was greater than 30 nM each time.

As for `Cc1c(N2CCC3(CCN(C(=O)c4ccc([C@H]5C[C@@H](Nc6cnn(C)c(=O)c6C)CN(C)C5)cc4)CC3)CC2)ccc(C2CCC(=O)NC2=O)c1F` (stereo partly drawn) [Compound 236], the values for the DC50 in experiment [1] and in experiment [2] were 1 to 30 nM and less than 1 nM, respectively.

`CN1C[C@H](Nc2cnn(C)c(=O)c2Cl)C[C@H](c2ccc(C(=O)N3CCC(c4ccc5c(C6CCC(=O)NC6=O)cncc5c4)CC3)cc2)C1` (stereo partly drawn) [Compound 331]: the DC50 in experiment [1] was greater than 30 nM; in experiment [2], less than 1 nM.

With `Cc1ncsc1-c1ccc(CNC(=O)[C@@H]2C[C@@H](O)CN2C(=O)[C@@H](NC(=O)CCCCCNC(=O)c2ccc([C@H]3C[C@@H](Nc4cnn(C)c(=O)c4Br)CN(C)C3)cc2)C(C)(C)C)cc1` [Compound 421], the DC50 in experiment [1] and in experiment [2] was greater than 30 nM each time.

`CN1C[C@H](Nc2cnn(C)c(=O)c2Br)C[C@H](c2ccc(CN3Cc4cc5c(cc4C3)C(=O)N(C3CCC(=O)NC3=O)C5=O)cc2)C1` (stereo partly drawn) [Compound 200]: the 50% degradation concentration (DC50) in experiment [1] is greater than 30 nM; in experiment [2], 1 to 30 nM.
